Holding throughout (assay): biochemical
Common to all, as to assay type: binding

The target in assay [1] is A*6802 (Homo sapiens, UniProt P04439, A269V/D140Y/D185E/E176V/E277Q/E87N/F33Y/G231S/I121R/I166T/I218V/L180W/L300P/L318F/N151K/P208A/P217A/Q86R/R138H/R169H/S129P/T345S/V36M).
For assay [2], the target named is A*0202 (Homo sapiens, UniProt P04439, D140Y/D185E/D98H/E176V/E277Q/G131W/G231S/I119L/I121R/I166T/I218V/L180W/L300P/L318F/N151K/N90K/P208A/P217A/Q67R/Q86G/Q94H/R138H/R169H/T345S).
Assay [3] concerns the target HLA-A*0201 (HLA-A2.1) (Homo sapiens, UniProt P04439, D140Y/D185E/D98H/E176V/E277Q/G131W/G231S/I119V/I121R/I166T/I218V/L300P/L318F/N151K/N90K/P208A/P217A/Q86G/Q94H/R138H/R169H/T345S).
Assay [4] concerns the target A*0206 (Homo sapiens, UniProt P04439, D140Y/D185E/D98H/E176V/E277Q/F33Y/G131W/G231S/I119V/I121R/I166T/I218V/L300P/L318F/N151K/N90K/P208A/P217A/Q86G/Q94H/R138H/R169H/T345S).
Assay [5] addresses A*0203 (Homo sapiens, UniProt P04439, A173T/D140Y/D185E/D98H/E277Q/G131W/G231S/I119V/I121R/I166T/I218V/L180W/L300P/L318F/N151K/N90K/P208A/P217A/Q86G/Q94H/R138H/R169H/T345S).

No end group written: not given here. Bounds are passed on as bounds.

Usually IC50 stands for the concentration that inhibits the measured activity by half. A low value points to higher potency. In the case of `CSCC[C@H](NC(=O)[C@@H](N)CCCNC(=N)N)C(=O)N1CCC[C@H]1C(=O)N[C@@H](CCC(=O)O)C(=O)N[C@@H](C)C(=O)N[C@@H](C)C(=O)N1CCC[C@H]1C(=O)N1CCC[C@H]1C(=O)N[C@H](C(=O)N[C@H](C(=O)O)C(C)C)C(C)C` [Peptide 1317.29], the IC50 in assay [1] was above 20000 nM; in assay [2], 62 nM; in assay [3] it was 55 nM; in assay [4] it was 259 nM; in assay [5], 6.3 nM.
The like results for `CC(C)C[C@H](NC(=O)[C@@H](N)CCCNC(=N)N)C(=O)N1CCC[C@H]1C(=O)N[C@@H](CCC(=O)O)C(=O)N[C@@H](C)C(=O)N[C@@H](C)C(=O)N1CCC[C@H]1C(=O)N1CCC[C@H]1C(=O)N[C@H](C(=O)N[C@H](C(=O)O)C(C)C)C(C)C` [Peptide 1323.17] were, in that order, above 20000 nM, 32 nM, 152 nM, 240 nM and 18 nM.
The like results for `CSCC[C@H](NC(=O)[C@H](C)N)C(=O)N[C@@H](CS)C(=O)N[C@@H](CCCNC(=N)N)C(=O)N[C@@H](Cc1c[nH]c2ccccc12)C(=O)NCC(=O)N[C@@H](CC(C)C)C(=O)N[C@@H](CC(C)C)C(=O)N[C@H](C(=O)O)C(C)C` [Peptide 1334.07] were, in that order, 3900 nM, 9280 nM, 51 nM, 2110 nM and 1570 nM.
Consider `CC[C@H](C)[C@H](NC(=O)CNC(=O)[C@@H](NC(=O)[C@@H](NC(=O)[C@H](C)NC(=O)CN)[C@@H](C)O)C(C)C)C(=O)N[C@@H](CCSC)C(=O)N[C@H](C(=O)NCC(=O)N[C@H](C(=O)N[C@H](C(=O)O)C(C)C)C(C)C)[C@@H](C)CC` [Peptide 9013.0342], for which the IC50 in assay [1] is 671 nM; in assay [2] it was 7520 nM; in assay [3] it was above 20000 nM; in assay [4], 4530 nM; in assay [5], 341 nM.
The like results for `CC[C@H](C)[C@H](N)C(=O)N[C@@H](CCSC)C(=O)N[C@H](C(=O)NCC(=O)N[C@H](C(=O)N[C@@H](CC(C)C)C(=O)N[C@H](C(=O)NCC(=O)N[C@H](C(=O)N[C@@H](C)C(=O)N[C@H](C(=O)O)C(C)C)C(C)C)C(C)C)C(C)C)[C@@H](C)CC` [Peptide 9013.0346] were, in that order, 9000 nM, 18 nM, 75 nM, 61 nM and 55 nM.
The like results for ALAEAMSQA [Peptide 1539.04] were, in that order, 3020 nM, 1.9 nM, 15 nM, 17 nM and 20 nM.
The like results for ALAFTCEPET [Peptide 9013.0156] were, in that order, above 20000 nM, 206 nM, above 20000 nM, 7960 nM and 279 nM.
Consider ALFNVQEGV [Peptide 1578.41], for which the IC50 in assay [1] is 914 nM; in assay [2], 2 nM; in assay [3], 64 nM; in assay [4], 45 nM; in assay [5], 5.2 nM.
The like results for ALNTTYLWWV [Peptide 9013.0217] were, in that order, 7700 nM, 48 nM, 223 nM, 578 nM and 5.6 nM.
The like results for ALYSWFVNGT [Peptide 9013.0173] were, in that order, above 20000 nM, 8.9 nM, 661 nM, 875 nM and 3.6 nM.
The like results for ALYWFRTAM [Peptide 86.0195] were, in that order, above 20000 nM, 17 nM, 1480 nM, 13900 nM and 214 nM.
ALYWYKTGI [Peptide 86.0176]: the concentration for half-maximal inhibition (IC50) in assay [1] worked out at 3290 nM; in assay [2], 21 nM; in assay [3], 665 nM; in assay [4], 4120 nM; in assay [5] it was 53 nM.
The like results for ALYWYRTGI [Peptide 86.0181] were, in that order, 4850 nM, 24 nM, 555 nM, 4640 nM and 64 nM.
The like results for ALYWYRTGL [Peptide 1578.30] were, in that order, above 20000 nM, 8.2 nM, 5070 nM, 11500 nM and 23 nM.
The like results for ALYWYRTGM [Peptide 86.0189] were, in that order, above 20000 nM, 13 nM, 1600 nM, 15600 nM and 57 nM.
As to AVAFTCEPEV [Peptide 9013.0155], the IC50 was determined as 13400 nM in assay [1]; 233 nM in assay [2]; 7860 nM in assay [3]; 199 nM in assay [4]; 54 nM in assay [5].
With CLAHNSDTGL [Peptide 9013.0191], the IC50 in assay [1] is above 20000 nM; in assay [2] it was 13 nM; in assay [3], 13500 nM; in assay [4] it was above 20000 nM; in assay [5], 39 nM.
As for CQAHNSDTGV [Peptide 9013.0190], the IC50 in assay [1] was above 20000 nM; in assay [2] it was 339 nM; in assay [3] it was above 20000 nM; in assay [4] it was 1560 nM; in assay [5], 466 nM.
Consider EVFIPNITV [Peptide 9013.0062], for which the IC50 in assay [1] was 4 nM; in assay [2], above 20000 nM; in assay [3], above 20000 nM; in assay [4], 4260 nM; in assay [5] it was above 20000 nM.
As to EVLLLVHNV [Peptide 9013.0021], the IC50 in assay [1] stood at 3 nM; in assay [2] it was 6240 nM; in assay [3], 3030 nM; in assay [4], 107 nM; in assay [5], 6600 nM.
The like results for EVQNTTYLWWV [Peptide 9013.0326] were, in that order, 34 nM, above 20000 nM, above 20000 nM, above 20000 nM and 19600 nM.
For QLSNGNRTLTV [Peptide 9013.0334], the half-inhibitory concentration (IC50) is above 20000 nM in assay [1], 20 nM in assay [2], above 20000 nM in assay [4] and 363 nM in assay [5].
Turning to RILQQLLFT [Peptide 1525.13], the IC50 was above 20000 nM in assay [1], 5690 nM in assay [2], 491 nM in assay [4] and 5250 nM in assay [5].
The like results for RLTVKTITVSA [Peptide 9013.0319] were, in that order, 270 nM, 401 nM, 1360 nM and 91 nM.
Regarding RQIIGYVIGV [Peptide 9013.0139], the IC50 was 27 nM in assay [1], 7.4 nM in assay [2], 47 nM in assay [4] and 20 nM in assay [5].
Turning to RVYVCGIQNSV [Peptide 9013.0336], the half-maximal inhibitory concentration (IC50) worked out at 6320 nM in assay [1], 0.22 nM in assay [2], 305 nM in assay [4] and 3.6 nM in assay [5].
The like results for SLLTFWNPPTV [Peptide 9013.0256] were, in that order, 2270 nM, 54 nM, 536 nM and 54 nM.
The like results for SLQELFIPNI [Peptide 9013.0182] were, in that order, 7460 nM, 15 nM, 66 nM and 35 nM.
The like results for TLGIMIGVLV [Peptide 9013.0251] were, in that order, 1780 nM, 87 nM, 2240 nM and 197 nM.
Take VLGEAMSQA [Peptide 1539.08]: the IC50 in assay [1] is above 20000 nM; in assay [2], 21 nM; in assay [4], 1090 nM; in assay [5], 22 nM.
As for VQWAFDNEV [Peptide 86.0209], the IC50 in assay [1] was above 20000 nM; in assay [2], 1500 nM; in assay [4] it was 31 nM; in assay [5], 4520 nM.
The like results for WLNNQSLPV [Peptide 9013.0070] were, in that order, 197 nM, 1.3 nM, 978 nM and 4.3 nM.
In the case of WQRLLLTASLV [Peptide 9013.0253], the 50% inhibitory concentration (IC50) in assay [1] is above 20000 nM; in assay [2] it was 246 nM; in assay [4] it was 496 nM; in assay [5] it was 19 nM.
The like results for YLIGTQQAT [Peptide 9013.0025] were, in that order, 8240 nM, 2.6 nM, 5520 nM and 18 nM.
The like results for YTYYRPGVNV [Peptide 9013.0208] were, in that order, 7 nM, 5.6 nM, 75 nM and 2.9 nM.
